Test results taken from patent US10570184B2, “GLP-1/glucagon receptor co-agonists for medical use” (Novo Nordisk A/S, priority 2014, dated 2020).
Starred links: 1 amine or outer side, 2 acyl side, 3 side chain; linkers in the order of their positions; H or OH if unused. Non-standard residues stand in square brackets, D forms with d. Residues, ends and D or L forms follow the SMILES beside them. Groups on a side chain read outwards from the residue. *: point of attachment. C18 diacid = O=C(O)CCCCCCCCCCCCCCCCC(=O)*; γGlu = O=C(O)[C@H](CCC(=O)[*:2])N[*:1]; AEEA = NCCOCCOCC(=O)O; Aib = CC(C)(N)C(=O)O

Key:
[1] = molecular target: T1, human glucagon receptor (Homo sapiens, UniProt P47871); assay: Assay (I)(b) glucagon receptor activation, CRE luciferase reporter gene assay in BHK cells; assay type: cell-based; conditions: without presence of serum albumin; read-out: GlucagonR EC50 (pM), [Assay (I)(b)]
T1 construct: expressed in transfected cells; host or cells: membranes of BHK cells, clone BHK hGCGR A3*25
Method: The purpose of this example was to test the activity or potency, of the glucagon derivatives of the invention, in vitro. The in vitro potency is the measure of human GLP-1 receptor (GLP-1R) or glucagon receptor (glucagonR) activation, respectively, in a whole cell assay. In vitro potency was determined by measuring the response of human GLP-1 or glucagon receptor, respectively, in a reporter gene assay. The assay was performed in a stably transfected BHK cell line that expresses either the human GLP-1 receptor or the human glucagon receptor and contains the DNA for the cAMP response element (CRE) coupled to a promoter and the gene for firefly luciferase (CRE luciferase). […] When assay incubation was completed, the luciferase substrate (luciferin) was added and the enzyme converted luciferin to oxyluciferin and produces bioluminescence. The luminescence was measured as the readout for the assay. The cells used in this assay (clone pLJ6′-4-25) were BHK cells with BHK570 as a parent cell line expressing the CRE luciferase gene (clone BHK/KZ10-20-48) and were established by further transfection with the human glucagon receptor (clone pLJ6′ in pHZ-1 vector). The cells were cultured at 5% CO2 in DMEM medium with 10% FBS, 1×GlutaMAX, 1 mg/ml G418, 240 nM MTX (methotrexate) and 1% pen/strep (penicillin/streptomycin). They were aliquoted and stored in liquid nitrogen. Before each assay, an aliquot was taken up and washed three times in PBS before being suspended at the desired concentration in assay medium. For 96-well plates the suspension was made to give a final concentration of 5×10EE3 cells/well. The following chemicals were used in the assay: Pluronic F-68 (10%) (Gibco 2404), ovalbumin (Sigma A5503), DMEM w/o phenol red (Gibco 11880-028), 1 M Hepes (Gibco 15630), Glutamax 100× (Gibco 35050) and steadylite plus (PerkinElmer 6016757). Assay Medium consisted of DMEM w/o phenol red, 10 mM Hepes, 1× GlutaMAX, 2% Ovalbumin and 0.2% Pluronic F-68. Cell stocks were thawed in a 37° C. water bath. Cells were washed three times in PBS. The cells were counted and adjusted to 5×10EE3 cells/50 μl (1×10EE5 cells/ml) in Assay Medium. A 50 μl aliquot of cells was transferred to each well in the assay plate. Stocks of the test compounds and reference compounds were diluted to a concentration of […] in Assay Medium. Compounds were diluted 10-fold to give the following concentrations: 2×10EE-6 M, 2×10EE-7 M, 2×10EE-8 M; 2×10EE-9 M, 2×10EE-10 M, 2×10EE-11 M, 2×10EE-12 M and 2×10EE-13 M. For each compound a blank assay medium control was also included. A 50 μl aliquot of compound or blank was transferred from the dilution plate to the assay plate. Compounds were tested at the following final concentrations: 1×10EE-6 M, 1×10EE-7 M, 1×10EE-8 M; 1×10EE-9 M, 1×10EE-10 M, 1×10EE-11 M and 1×10EE-12 M and 1×10EE-13 M. The assay plate was incubated for 3 h in a 5% CO2 incubator at 37° C. The assay plate was removed from the incubator and allowed to stand at room temperature for 15 min. A 100 μl aliquot of steadylite plus reagent was added to each well of the assay plate (reagent is light sensitive). Each assay plate was covered with aluminum foil to protect it from light and shaken for 30 min at room temperature. Each assay plate was read in a Perkin Elmer TopCount NXT instrument. The data from the TopCount instrument was transferred to GraphPad Prism software. The software performed a non-linear regression (log(agonist) vs response-Variable slope (four parameter)). EC50 values were calculated by the software and reported in pM.

[2] = Assay (III) ThT fibrillation assay for physical stability; assay type: physicochemical; conditions: 250 μM in 10 mM HEPES buffer, 37° C., shaking 960 rpm
Procedure, shortened: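 Glucagon derivative at 250 μM in 10 mM HEPES pH 7.5 with 1 μM ThT was incubated at 37 °C under 960 rpm orbital shaking. Fluorescence (ex 444/em 485 nm) was read every 20 min and fitted for lag time (t0−2τ) and kapp (1/τ). Recovery was soluble peptide after centrifugation/filtration, by RP-HPLC, as percent of initial.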

T1 sequence (P47871 26-477): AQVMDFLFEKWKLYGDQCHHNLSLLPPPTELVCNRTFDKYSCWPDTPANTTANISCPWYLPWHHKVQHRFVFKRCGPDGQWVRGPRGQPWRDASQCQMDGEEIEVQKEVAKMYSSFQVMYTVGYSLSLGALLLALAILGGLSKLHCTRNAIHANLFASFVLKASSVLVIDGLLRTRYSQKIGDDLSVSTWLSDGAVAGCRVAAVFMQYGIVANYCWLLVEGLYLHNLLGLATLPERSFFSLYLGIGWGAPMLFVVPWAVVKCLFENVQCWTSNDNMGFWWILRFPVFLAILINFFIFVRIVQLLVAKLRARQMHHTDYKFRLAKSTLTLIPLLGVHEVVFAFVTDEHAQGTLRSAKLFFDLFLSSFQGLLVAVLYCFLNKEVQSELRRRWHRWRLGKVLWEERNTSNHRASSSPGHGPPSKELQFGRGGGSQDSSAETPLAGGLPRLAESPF

Row | EC50 [1] | ThT Assay Lag time (h) [Assay (III), pH 7.5] [2] | Compound
1 | 32 pM | – | CC[C@H](C)[C@H](NC(=O)[C@H](CC(C)C)NC(=O)[C@H](Cc1c[nH]c2ccccc12)NC(=O)[C@H](CCC(N)=O)NC(=O)[C@@H](NC(=O)[C@H](Cc1ccccc1)NC(=O)[C@H](CC(=O)O)NC(=O)[C@H](CCC(N)=O)NC(=O)[C@H](C)NC(=O)[C@H](CCCNC(=N)N)NC(=O)[C@H](CCCNC(=N)N)NC(=O)[C@H](C)NC(=O)[C@H](CC(=O)O)NC(=O)[C@H](CC(C)C)NC(=O)[C@H](Cc1ccc(O)cc1)NC(=O)[C@H](CCCCN)NC(=O)[C@H](CO)NC(=O)[C@H](CC(C)C)NC(=O)[C@H](CC(=O)O)NC(=O)[C@H](CO)NC(=O)[C@@H](NC(=O)[C@H](Cc1ccccc1)NC(=O)[C@@H](NC(=O)CNC(=O)[C@H](CCC(N)=O)NC(=O)C(C)(C)NC(=O)[C@@H](N)Cc1c[nH]cn1)[C@@H](C)O)[C@@H](C)O)C(C)C)C(=O)N[C@@H](CCCCNC(=O)COCCOCCNC(=O)COCCOCCNC(=O)CC[C@H](NC(=O)CC[C@H](NC(=O)CC[C@H](NC(=O)CCCCCCCCCCCCCCCCC(=O)O)C(=O)O)C(=O)O)C(=O)O)C(=O)N[C@H](C(N)=O)[C@@H](C)O [Chem. 7, N^ε28-[2-[2-[2-[[2-[2-[2-[[(4S)-4-carboxy-4-[[(4S)-4-carboxy-4-[[(4S)-4-carboxy-4-(17-carboxyheptadecanoylamino)butanoyl]amino]butanoyl]amino]butanoyl]amino]ethoxy]ethoxy]acetyl]amino]ethoxy]ethoxy]acetyl]-[Aib2,Leu10,Ala16,Ile27,Lys28]-Glucagon amide] (H-H[Aib]QGTFTSDLSKYLDARRAQDFVQWLIK([AEEA-AEEA-γGlu-γGlu-γGlu-C18 diacid])T-NH2; N-terminus assumed)
2 | 7 pM | 45.0 h | CC[C@H](C)[C@H](NC(=O)[C@H](CC(C)C)NC(=O)[C@H](Cc1c[nH]c2ccccc12)NC(=O)[C@H](C)NC(=O)[C@@H](NC(=O)[C@H](Cc1ccccc1)NC(=O)[C@H](CC(=O)O)NC(=O)[C@H](CCCNC(=N)N)NC(=O)[C@H](C)NC(=O)[C@H](CCCNC(=N)N)NC(=O)[C@H](CCCNC(=N)N)NC(=O)[C@H](C)NC(=O)[C@H](CC(=O)O)NC(=O)[C@H](CC(C)C)NC(=O)[C@H](Cc1ccc(O)cc1)NC(=O)[C@H](CCCCN)NC(=O)[C@H](CO)NC(=O)[C@H](Cc1ccc(O)cc1)NC(=O)[C@H](CC(=O)O)NC(=O)[C@H](CO)NC(=O)[C@@H](NC(=O)[C@H](Cc1ccccc1)NC(=O)[C@@H](NC(=O)CNC(=O)[C@H](CCC(N)=O)NC(=O)C(C)(C)NC(=O)[C@@H](N)Cc1c[nH]cn1)[C@@H](C)O)[C@@H](C)O)C(C)C)C(=O)N[C@@H](CCCCNC(=O)CC[C@H](NC(=O)CC[C@H](NC(=O)COCCOCCNC(=O)COCCOCCNC(=O)CC[C@H](NC(=O)CCCCCCCCCCCCCCCCC(=O)O)C(=O)O)C(=O)O)C(=O)O)C(=O)N[C@H](C(N)=O)[C@@H](C)O [Chem. 32, N^ε28-[(4S)-4-carboxy-4-[[(4S)-4-carboxy-4-[[2-[2-[2-[[2-[2-[2-[[(4S)-4-carboxy-4-(17-carboxyheptadecanoylamino)butanoyl]amino]ethoxy]ethoxy]acetyl]amino]ethoxy]ethoxy]acetyl]amino]butanoyl]amino]butanoyl]-[Aib2,Ala16,Arg20,Ala24,Ile27,Lys28]-Glucagon amide] (H-H[Aib]QGTFTSDYSKYLDARRARDFVAWLIK([γGlu-γGlu-AEEA-AEEA-γGlu-C18 diacid])T-NH2)
3 | 66 pM | 45.0 h | CC[C@H](C)[C@H](NC(=O)[C@H](CC(C)C)NC(=O)[C@H](Cc1c[nH]c2ccccc12)NC(=O)[C@H](C)NC(=O)[C@@H](NC(=O)[C@H](Cc1ccccc1)NC(=O)[C@H](CC(=O)O)NC(=O)[C@H](CCC(N)=O)NC(=O)[C@H](C)NC(=O)[C@H](CCCNC(=N)N)NC(=O)[C@H](CCCNC(=N)N)NC(=O)[C@H](CO)NC(=O)[C@H](CCC(=O)O)NC(=O)[C@H](CC(C)C)NC(=O)[C@H](Cc1ccc(O)cc1)NC(=O)[C@H](CCCCN)NC(=O)[C@H](CO)NC(=O)[C@H](Cc1ccc(O)cc1)NC(=O)[C@H](CC(=O)O)NC(=O)[C@H](CO)NC(=O)[C@@H](NC(=O)[C@H](Cc1ccccc1)NC(=O)[C@@H](NC(=O)CNC(=O)[C@H](CCC(N)=O)NC(=O)C(C)(C)NC(=O)[C@@H](N)Cc1c[nH]cn1)[C@@H](C)O)[C@@H](C)O)C(C)C)C(=O)N[C@@H](CCCCNC(=O)CC[C@H](NC(=O)CC[C@H](NC(=O)COCCOCCNC(=O)COCCOCCNC(=O)CC[C@H](NC(=O)CCCCCCCCCCCCCCCCC(=O)O)C(=O)O)C(=O)O)C(=O)O)C(=O)N[C@H](C(N)=O)[C@@H](C)O [Chem. 34, N^ε28-[(4S)-4-carboxy-4-[[(4S)-4-carboxy-4-[[2-[2-[2-[[2-[2-[2-[[(4S)-4-carboxy-4-(17-carboxyheptadecanoylamino)butanoyl]amino]ethoxy]ethoxy]acetyl]amino]ethoxy]ethoxy]acetyl]amino]butanoyl]amino]butanoyl]-[Aib2,Glu15,Ala24,Ile27,Lys28]-Glucagon amide] (H-H[Aib]QGTFTSDYSKYLESRRAQDFVAWLIK([γGlu-γGlu-AEEA-AEEA-γGlu-C18 diacid])T-NH2)
4 | 12 pM | – | CC[C@H](C)[C@H](NC(=O)[C@H](CC(C)C)NC(=O)[C@H](Cc1c[nH]c2ccccc12)NC(=O)[C@H](CCCCNC(=O)COCCOCCNC(=O)COCCOCCNC(=O)CC[C@H](NC(=O)CC[C@H](NC(=O)CC[C@H](NC(=O)CCCCCCCCCCCCCCCCC(=O)O)C(=O)O)C(=O)O)C(=O)O)NC(=O)[C@@H](NC(=O)[C@H](Cc1ccccc1)NC(=O)[C@H](CCC(=O)O)NC(=O)[C@H](CCCNC(=N)N)NC(=O)[C@H](C)NC(=O)[C@H](CCCNC(=N)N)NC(=O)[C@H](CCCNC(=N)N)NC(=O)[C@H](C)NC(=O)[C@H](CC(=O)O)NC(=O)[C@H](CC(C)C)NC(=O)[C@H](Cc1ccc(O)cc1)NC(=O)[C@H](CCCCN)NC(=O)[C@H](CO)NC(=O)[C@H](Cc1ccc(O)cc1)NC(=O)[C@H](CC(=O)O)NC(=O)[C@H](CO)NC(=O)[C@@H](NC(=O)[C@H](Cc1ccccc1)NC(=O)[C@@H](NC(=O)CNC(=O)[C@H](CCC(N)=O)NC(=O)C(C)(C)NC(=O)[C@@H](N)Cc1c[nH]cn1)[C@@H](C)O)[C@@H](C)O)C(C)C)C(=O)N[C@@H](CO)C(=O)N[C@H](C(N)=O)[C@@H](C)O [Chem. 4, N^ε24-[2-[2-[2-[[2-[2-[2-[[(4S)-4-carboxy-4-[[(4S)-4-carboxy-4-[[(4S)-4-carboxy-4-(17-carboxyheptadecanoylamino)butanoyl]amino]butanoyl]amino]butanoyl]amino]ethoxy]ethoxy]acetyl]amino]ethoxy]ethoxy]acetyl]-[Aib2,Ala16,Arg20,Glu21,Lys24,Ile27,Ser28]-Glucagon amide] (H-H[Aib]QGTFTSDYSKYLDARRAREFVK([AEEA-AEEA-γGlu-γGlu-γGlu-C18 diacid])WLIST-NH2; N-terminus assumed)
